Literature values as cited in patent US9592004B2, “Methods and systems for managing epilepsy and other neurological disorders” (CYBERONICS, INC., priority 2005, dated 2017).
Read-outs that look alike come from different tables or passages of the source.

Legend:
[1] = tested on: seizure; details: intranasal
[2] = tested on: seizures
[3] = not given; remark: listed apart in the source
[4] = tested on: sodium channels; details: in vitro
[5] = tested on: T-type Ca^2+ currents; details: in vitro
[6] = tested on: GABA/benzodiazepine receptor ionophore complex; details: in vitro; does not produce changes in chloride flux
[7] = tested on: cultured mouse spinal cord neurons; details: 10-30 μg/mL
[8] = tested on: rat hippocampal slices; details: 10-30 μg/mL
[9] = tested on: dopaminergic and serotonergic neurotransmission; details: in vivo microdialysis
[10] = tested on: partial seizures; details: controlled trials, adjunctive therapy, adults, oral
[11] = tested on: carbonic anhydrase
[12] = long term therapy, per daily dose of 1 mg/kg of primidone

## Cc1ncc2n1-c1ccc(Cl)cc1C(c1ccccc1F)=NC2 [Midazolam, midazolam]
[1]
  time to terminate a seizure: 30 s

## O=C1NC(=O)C(c2ccccc2)(c2ccccc2)N1 [Phenytoin, diphenylhydantoin]
[2]
  concentration giving chronic control of seizures: above 10 μg/ml
other
  concentration at which toxic effects such as nystagmus develop: around 20 μg/ml

## CCC1(C)CC(=O)NC1=O (stereo not shown) [ethosuximide, Ethosuximide]
[3]; long-term therapy, per daily dose of 1 mg/kg
  average plasma concentration: about 2 μg/ml

## CCC1(c2ccccc2)C(=O)NC(=O)NC1=O [phenobarbital, Phenobarbital]
[3]; long term therapy in adults, per daily dose of 1 mg/kg
  average plasma concentration: about 10 μg/ml
[3]; [12]
  average plasma concentration: about 2 μg/ml

## CCC1(c2ccccc2)C(=O)NCNC1=O [primidone, Primidone]
[3]; [12]
  average plasma concentration: about 1 μg/ml

## NS(=O)(=O)Cc1noc2ccccc12 [zonisamide, 1,2-benzisoxazole-3-methanesulfonamide]
[4]
  effect on sodium channels: blocks sodium channels
[5]
  effect on T-type Ca2+ currents: reduces voltage-dependent, transient inward currents
[6]
  binding to GABA/benzodiazepine receptor ionophore complex: binds to the GABA/benzodiazepine receptor ionophore complex in an allosteric fashion
[7]
  effect on synaptically-driven electrical activity: suppresses synaptically-driven electrical activity
[7]; cultured mouse spinal cord neurons
  effect on postsynaptic GABA or glutamate responses: without affecting postsynaptic GABA or glutamate responses
[8]
  effect on neuronal or glial uptake of [3H]-GABA: without affecting
[9]
  effect on dopaminergic and serotonergic neurotransmission: facilitates both dopaminergic and serotonergic neurotransmission
[10]
  effective doses: 100 to 600 mg/day
[11]
  carbonic anhydrase inhibiting activity: weak carbonic anhydrase inhibiting activity
